Laboratory results from ChEMBL document CHEMBL1201862, “PubChem BioAssay data set” (2004).
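Cultured in 96-well plates, cells were exposed to test compound for 48 hours across five concentrations. Abbreviation: GI50, concentration required for 50% inhibition of growth.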 Calls of active or inactive are those of the source. No stated cut-off is given here; in the data, active = GI50 up to about 1.1 µM and inactive = higher.

How the values were obtained:
Assay in all cases: NCI tumour cell line growth inhibition, 48 h
[1] = test system: ACHN
[2] = test system: BT-549
[3] = test system: CCRF-CEM
[4] = test system: DU-145
[5] = test system: HCC 2998
[6] = test system: HCT-116
[7] = test system: HL-60
[8] = test system: IGROV-1
[9] = test system: K562
[10] = test system: LOX IMVI
[11] = test system: Malme-3M
[12] = test system: NCI-H226
[13] = test system: NCI-H23
[14] = test system: OVCAR-4
[15] = test system: OVCAR-8
[16] = test system: SF-295
[17] = test system: SK-MEL-2
[18] = test system: UACC-257
[19] = test system: HOP-92

Row | Compound | GI50 [1] | GI50 [2] | GI50 [3] | GI50 [4] | GI50 [5] | GI50 [6] | GI50 [7] | GI50 [8] | GI50 [9] | GI50 [10] | GI50 [11] | GI50 [12] | GI50 [13] | GI50 [14] | GI50 [15] | GI50 [16] | GI50 [17] | GI50 [18] | GI50 [19]
1 | CCn1c(SCC(=O)N/N=C2\SCC(=O)N2c2ccc(C)cc2)nc2ccccc2c1=O | 18.6 µM (inactive) | > 10 µM (inactive) | 34 µM (inactive) | 28.2 µM (inactive) | 36.8 µM (inactive) | 20 µM (inactive) | 92.3 µM (inactive) | 21.6 µM (inactive) | 29.2 µM (inactive) | 25.2 µM (inactive) | 21.9 µM (inactive) | 23.8 µM (inactive) | 19.1 µM (inactive) | 18.2 µM (inactive) | 17 µM (inactive) | 18.6 µM (inactive) | 28.9 µM (inactive) | 15.7 µM (inactive) | 
2 | c1cc2nnc1SCCCSc1ccc(nn1)SCCCSc1ccc(nn1)SCCCS2 | > 100 µM (inactive) | > 100 µM (inactive) | > 100 µM (inactive) | > 100 µM (inactive) | > 100 µM (inactive) | > 100 µM (inactive) | > 100 µM (inactive) | > 100 µM (inactive) | > 100 µM (inactive) | > 100 µM (inactive) | > 100 µM (inactive) | > 100 µM (inactive) | > 100 µM (inactive) | > 100 µM (inactive) | > 100 µM (inactive) | > 100 µM (inactive) | 83.8 µM (inactive) | > 100 µM (inactive) | 
3 | C=CCC1NCCC2=C1C(S(=O)(=O)c1ccc(C)cc1)c1ccccc12 (stereo unspecified) | 7.16 µM (inactive) |  | 7.96 µM (inactive) | 11.9 µM (inactive) | 1.85 µM (inactive) | 11.1 µM (inactive) |  | 8.11 µM (inactive) | 5.62 µM (inactive) | 8.91 µM (inactive) | 11.2 µM (inactive) | 16.8 µM (inactive) | 18 µM (inactive) | 12.1 µM (inactive) | 14.3 µM (inactive) | 13.7 µM (inactive) | 13.5 µM (inactive) | 20.2 µM (inactive) | 9.95 µM (inactive)
4 | Oc1ccc2ccccc2c1/N=N/c1ccc(/N=N/c2ccccc2)cc1 | > 100 µM (inactive) | > 100 µM (inactive) | > 100 µM (inactive) | > 100 µM (inactive) |  | 93.1 µM (inactive) | 0.43 µM (active) | > 100 µM (inactive) | > 100 µM (inactive) | > 100 µM (inactive) | > 100 µM (inactive) | > 100 µM (inactive) | > 100 µM (inactive) | > 100 µM (inactive) | > 100 µM (inactive) | > 100 µM (inactive) | > 100 µM (inactive) | > 100 µM (inactive) | 
5 | CCC(=O)N(c1ccccc1)C(C)CN1CCC(O)(c2cccc(C(F)(F)F)c2)CC1 (stereo unspecified) | 36.2 µM (inactive) |  | 19.9 µM (inactive) |  | 26.5 µM (inactive) | 17.3 µM (inactive) | 17.8 µM (inactive) | 59.2 µM (inactive) | 20.9 µM (inactive) | 18.9 µM (inactive) |  | 30.2 µM (inactive) | 21.4 µM (inactive) | 33.3 µM (inactive) | 38.1 µM (inactive) | 35.4 µM (inactive) | 20.9 µM (inactive) | 17.5 µM (inactive) | 22.8 µM (inactive)
6 | O=C1Nc2ccccc2/C1=N/Nc1nc(-c2ccc(Cl)c(Cl)c2)cs1 | 87.1 µM (inactive) |  |  | 92 µM (inactive) | > 100 µM (inactive) | 90.6 µM (inactive) | 0.232 µM (active) | 9.73 µM (inactive) |  | > 100 µM (inactive) |  | > 100 µM (inactive) | 46.1 µM (inactive) | 77.6 µM (inactive) | 47.4 µM (inactive) | > 100 µM (inactive) | 43 µM (inactive) | > 100 µM (inactive) | > 100 µM (inactive)
7 | Nc1n[n+]([O-])c2ccc(Cl)cc2[n+]1[O-] | 24.2 µM (inactive) | 13.2 µM (inactive) | 22.4 µM (inactive) | 46.1 µM (inactive) | 16.4 µM (inactive) | 18.5 µM (inactive) | 7.23 µM (inactive) | 11.6 µM (inactive) | 10.3 µM (inactive) | 25.1 µM (inactive) | 18.3 µM (inactive) | 23.1 µM (inactive) | 20.1 µM (inactive) |  | > 10 µM (inactive) | 23 µM (inactive) | 31.7 µM (inactive) | 17.9 µM (inactive) | 
8 | COc1cc2c(cc1C)NC(=O)/C2=C/c1c(Cl)n(C)c2ccccc12 | 10.3 µM (inactive) | 4.57 µM (inactive) | 1.9 µM (inactive) | 10.3 µM (inactive) | 5.18 µM (inactive) | 5.46 µM (inactive) | 2.61 µM (inactive) | 3.81 µM (inactive) | 3.02 µM (inactive) | 7.69 µM (inactive) | 8 µM (inactive) | 4.53 µM (inactive) | 6.27 µM (inactive) | 6.87 µM (inactive) | 12.5 µM (inactive) | 7.66 µM (inactive) | 9.66 µM (inactive) | 11.9 µM (inactive) | 
